Results on seven compounds are retold here after patent US20130065922A1, “NOVEL AMIDES AS FUNGICIDES” (priority 2010, published 2013).

Data set [1] relates to Phytophthora infestans. Put plainly: whole plant or invertebrate. It counts as in vivo. As to conditions: in Solanum lycopersicum, foliar, read-out: inhibit fungal infestation.
Data set [2] concerns Plasmopara viticola. Put plainly: whole plant or invertebrate. As to conditions: foliar, read-out: inhibit fungal infestation. It counts as in vivo.
In data set [3] the test system is Blumeria graminis f. Sp. tritici (Erysiphe graminis f. Sp. tritici). The data set is described as follows: Blumeria graminis f. Sp. tritici (Erysiphe graminis f. Sp. tritici)/Wheat/Leaf Disc Preventative (Powdery Mildew on Wheat). The following applies: foliar, read-out: inhibit fungal infestation. It counts as in vivo.
In data set [4] the test system is Phaeosphaeria nodorum (Septoria nodorum). The data set is described as follows: Phaeosphaeria nodorum (Septoria nodorum)/Wheat/Leaf Disc Preventative (Glume Blotch). The class given is in vivo. The following applies: Parastagonospora nodorum, foliar, read-out: inhibit fungal infestation.
For data set [5], the system named is Pythium ultimum. The data set is described as follows: Pythium ultimum/Liquid Culture (Seedling Damping Off). The class given is cell-based. The following applies: Globisporangium ultimum, read-out: inhibit fungal infestation.
The mark [6] stands for this setting: 200 ppm, wheat leaf segments cv. Kanzler, preventative, 6-8 days after application, untreated control infected to over 80%.
Where [7] appears, read: 200 ppm, wheat leaf segments cv. Kanzler, preventative, 5-7 days after application, untreated control infected to over 80%.
[8] abbreviates: 200 ppm, liquid culture (PDB), 24° C., growth inhibition photometrically 2-3 days after application.

In general, melting point refers to the temperature of the solid-liquid transition.

Where two headings read alike, the source gives them in different places.

Take `CC#CC(C)(C)NC(=O)C(Oc1cc(Cl)c2ncc(OC)cc2c1)SC` (stereo not drawn) [Compound 14, 2-(8-Chloro-3-methoxy-quinolin-6-yloxy)-N-(1,1-dimethyl-but-2-ynyl)-2-methylsulfanyl-acetamide]: the melting point fell in the range of 133 to 136 °C. For the same compound, the inhibition at 200 ppm in data set [1] was ≥ 80%. In addition, the inhibition at 200 ppm in data set [2] is ≥ 80%. In data set [3], the inhibition at 200 ppm was ≥ 80%. In addition, in data set [4], the inhibition at 200 ppm is ≥ 80%. Further, in data set [5], the inhibition at 200 ppm is ≥ 80%.

Regarding `CO/N=C/C(C)(C)NC(=O)C(Oc1cc(Cl)c2ncc(OC)cc2c1)SC` (stereo not drawn) [Compound 15, 2-(8-Chloro-3-methoxy-quinolin-6-yloxy)-N-(2-methoxyimino-1,1-dimethyl-ethyl)-2-methylsulfanyl-acetamide], the melting point was in the range of 124 to 125 °C. The inhibition at 200 ppm in data set [1] is ≥ 80%. Also, the inhibition at 200 ppm in data set [2] is ≥ 80%. Further, the inhibition at 200 ppm in data set [3] (setting [6]) was ≥ 80%. In data set [4] (setting [7]), the inhibition at 200 ppm was ≥ 80%. For the same compound, the inhibition at 200 ppm in data set [5] (setting [8]) is ≥ 80%.

`COCC#CC(C)(C)NC(=O)C(Oc1cc(C)c2ncc(OC)cc2c1)SC` (stereo not drawn) [Compound 17, N-(4-Methoxy-1,1-dimethyl-but-2-ynyl)-2-(3-methoxy-8-methyl-quinolin-6-yloxy)-2-methylsulfanyl-acetamide] came in with a melting point of 94 to 98 °C. In data set [1], the inhibition at 200 ppm is ≥ 80%. For the same compound, in data set [2], the inhibition at 200 ppm is ≥ 80%. Also, the inhibition at 200 ppm in data set [3] was ≥ 80%. Also, the inhibition at 200 ppm in data set [4] is ≥ 80%. Besides, the inhibition at 200 ppm in data set [5] is ≥ 80%.

Compound `CO/N=C/C(C)(C)NC(=O)C(Oc1cc(C)c2ncc(OC)cc2c1)SC` (stereo not drawn) [Compound 19, N-(2-Methoxyimino-1,1-dimethyl-ethyl)-2-(3-methoxy-8-methyl-quinolin-6-yloxy)-2-methylsulfanyl-acetamide] gave a melting point of 121 to 124 °C. The inhibition at 200 ppm in data set [1] was ≥ 80%. The inhibition at 200 ppm in data set [2] was ≥ 80%. Further, the inhibition at 200 ppm in data set [3] (setting [6]) is ≥ 80%. Moreover, in data set [4] (setting [7]), the inhibition at 200 ppm was ≥ 80%. Besides, the inhibition at 200 ppm in data set [5] (setting [8]) was ≥ 80%.

The compound `CCOc1cnc2c(C)cc(OC(SC)C(=O)NC(C)(C)/C=N/OC)cc2c1` (stereo not drawn) [Compound 21, 2-(3-Ethoxy-8-methyl-quinolin-6-yloxy)-N-(2-methoxyimino-1,1-dimethyl-ethyl)-2-methylsulfanyl-acetamide] showed a melting point of 125 to 126 °C. In addition, in data set [1], the inhibition at 200 ppm is ≥ 80%. The inhibition at 200 ppm in data set [2] is ≥ 80%. Also, in data set [3] (setting [6]), the inhibition at 200 ppm is ≥ 80%. Also, the inhibition at 200 ppm in data set [4] (setting [7]) was ≥ 80%. Besides, the inhibition at 200 ppm in data set [5] (setting [8]) was ≥ 80%.

Take `CCOc1cnc2c(C)cc(OC(SC)C(=O)NC(C)(C)C#CCOC)cc2c1` (stereo not drawn) [Compound 22]: the melting point lay in the range of 107 to 109 °C. For the same compound, the inhibition at 200 ppm in data set [1] is ≥ 80%. The inhibition at 200 ppm in data set [2] is ≥ 80%. The inhibition at 200 ppm in data set [3] is ≥ 80%. In addition, in data set [4], the inhibition at 200 ppm is ≥ 80%. Moreover, the inhibition at 200 ppm in data set [5] was ≥ 80%.

The compound `CO/N=C/C(C)(C)NC(=O)C(Oc1ccc2ncc(SC)cc2c1)SC` (stereo not drawn) [Compound 27, N-(2-Methoxy-imino-1,1-dimethyl-ethyl)-2-methylsulfanyl-2-(3-methylsulfanyl-quinolin-6-yloxy)-acetamide] registered a melting point of 120 to 122 °C. Moreover, the inhibition at 200 ppm in data set [1] is ≥ 80%. Also, the inhibition at 200 ppm in data set [2] is ≥ 80%. Also, the inhibition at 200 ppm in data set [3] (setting [6]) was ≥ 80%. Moreover, the inhibition at 200 ppm in data set [4] (setting [7]) is ≥ 80%. Besides, the inhibition at 200 ppm in data set [5] (setting [8]) is ≥ 80%.
